In ChEMBL document CHEMBL1132002, “Interaction of tyrosyl aryl dipeptides with S. aureus tyrosyl tRNA synthetase: inhibition and crystal structure of a complex” (Bioorg Med Chem Lett, 1999) one finds IC50 data, which are given here for 2 compounds.

Square brackets hold non-standard residues; d marks the D form. Peptide text beside a SMILES is read from it. ξ: configuration not given here. ξHpg = NC(C(=O)O)c1ccc(O)cc1

This assay has as its system Tyrosine--tRNA ligase (Staphylococcus aureus). The assay is described as follows: Compound was tested for inhibition of Staphylococcus aureus tyrosyl tRNA Synthetase; NI=No inhibition.

Consider `N[C@@H](Cc1ccc(O)cc1)C(=O)N[C@@H](C(=O)O)c1ccccc1`, for which the IC50 result was “No inhibition”.
For `COC(=O)C(NC(=O)[C@@H](N)Cc1ccc(O)cc1)c1ccc(O)cc1` (some centres not stated) (H-Tyr-[ξHpg]-OMe) the value was “No inhibition”.
